Assay results: ChEMBL document CHEMBL1129188, “Structure activity relationships of tetrahydrocannabinol analogues on human cannabinoid receptors” (Bioorg Med Chem Lett, 1996)

Assays:
Cannabinoid receptor 1 [1] = target: T1, Cannabinoid receptor 1 (Homo sapiens, UniProt P21554); assay: Binding affinity against human cannabinoid receptor by using radioligand ([3H]CP-55940) assay.
Cannabinoid receptor 2 = Cannabinoid receptor 2 (Homo sapiens, UniProt P34972); assay: Binding affinity against human Cannabinoid receptor 2 by using radioligand ([3H]CP-55940) assay.
[2] = target: Cannabinoid receptor (Homo sapiens) (UniProt P34972+P21554); assay: Ratio of binding affinity of hCB1 to hCB2 was reported; assay type: protein assay
Cannabinoid receptor 1 [3] = target: T1, Cannabinoid receptor 1; assay: Compound was evaluated for binding affinity against human cannabinoid receptor by using radioligand ([3H]CP-55940) assay; first determination
Cannabinoid receptor 1 [4] = target: T1, Cannabinoid receptor 1; assay: Compound was evaluated for binding affinity against human cannabinoid receptor by using radioligand ([3H]CP-55940) assay; second determination

Chain of Cannabinoid receptor 2 (P34972 whole entry): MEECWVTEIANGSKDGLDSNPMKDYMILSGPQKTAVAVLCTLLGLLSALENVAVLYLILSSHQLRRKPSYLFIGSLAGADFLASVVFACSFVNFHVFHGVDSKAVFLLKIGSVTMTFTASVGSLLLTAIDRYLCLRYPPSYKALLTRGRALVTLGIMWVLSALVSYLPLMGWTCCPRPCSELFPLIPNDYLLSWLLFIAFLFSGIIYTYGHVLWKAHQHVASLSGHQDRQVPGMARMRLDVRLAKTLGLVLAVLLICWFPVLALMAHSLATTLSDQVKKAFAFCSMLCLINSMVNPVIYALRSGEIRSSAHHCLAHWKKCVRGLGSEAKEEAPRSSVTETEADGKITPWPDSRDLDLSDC
T1 sequence (P21554 whole entry): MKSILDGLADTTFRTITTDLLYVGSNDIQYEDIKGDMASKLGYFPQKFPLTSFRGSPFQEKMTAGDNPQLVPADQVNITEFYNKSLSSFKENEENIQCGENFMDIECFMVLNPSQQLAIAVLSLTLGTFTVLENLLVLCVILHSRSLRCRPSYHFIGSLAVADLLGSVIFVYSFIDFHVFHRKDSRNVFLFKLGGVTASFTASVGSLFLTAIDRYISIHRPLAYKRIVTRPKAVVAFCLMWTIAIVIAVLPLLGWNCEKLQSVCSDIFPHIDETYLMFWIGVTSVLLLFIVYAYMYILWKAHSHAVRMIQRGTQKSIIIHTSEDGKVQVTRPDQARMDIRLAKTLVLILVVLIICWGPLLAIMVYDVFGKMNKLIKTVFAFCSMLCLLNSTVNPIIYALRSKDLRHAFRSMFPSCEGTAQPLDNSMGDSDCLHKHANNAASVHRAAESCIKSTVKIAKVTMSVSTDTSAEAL
Chain of Cannabinoid receptor (Homo sapiens) (P21554 whole entry, looked up): as the sequence (P21554 whole entry) above
Chain of Cannabinoid receptor (Homo sapiens) (P34972 whole entry, looked up): as the sequence (P34972 whole entry) above

SMILES: CCCCCCC(C)(C)c1cc(O)c([C@@H]2C=C(C)C3C[C@H]2C3(C)C)c(O)c1
- Ki (Cannabinoid receptor 1 [1]): 350 nM
- Ki (Cannabinoid receptor 2): 41.2 nM
- Ratio [2]: 9

SMILES: C=C1CC[C@@H]2[C@@H](C1)c1c(O)cc(C(C)(C)CCCCCC)cc1OC2(C)C
- Ki (Cannabinoid receptor 1 [1]): 1.82 nM
- Ki (Cannabinoid receptor 2): 0.58 nM
- Ratio [2]: 3.1

SMILES: C=C1CC[C@@H]2[C@@H](C1)c1c(OC)cc(C(C)(C)CCCCCC)cc1OC2(C)C
- Ki (Cannabinoid receptor 1 [1]): > 20000 nM
- Ki (Cannabinoid receptor 2): 19.4 nM
- Ratio [2]: > 1000

SMILES: CCCCCCC(C)(C)c1cc(O)c2c(c1)OC(C)(C)[C@H]1CC=C(C=O)C[C@H]21
- Ki (Cannabinoid receptor 1 [1]): 97 nM
- Ki (Cannabinoid receptor 2): 119 nM
- Ratio [2]: 0.8

SMILES: CCCCCCC(C)(C)c1cc(O)c2c(c1)OC(C)(C)[C@@H]1CC=C(C=O)C[C@@H]21
- Ki (Cannabinoid receptor 1 [1]): 2.24 nM
- Ki (Cannabinoid receptor 2): 2.61 nM
- Ratio [2]: 0.9

SMILES: CCCCCCC(C)(C)c1cc(OC)c2c(c1)OC(C)(C)[C@@H]1CCC(=O)C[C@@H]21
- Ki (Cannabinoid receptor 1 [1]): 621 nM
- Ki (Cannabinoid receptor 2): 132 nM
- Ratio [2]: 4.7

SMILES: CCCCCCC(C)(C)c1cc(O)c(-c2cc(C)cc(C)c2)c(O)c1
- Ki (Cannabinoid receptor 1 [1]): 79.1 nM
- Ki (Cannabinoid receptor 2): 2 nM
- Ratio [2]: 40

SMILES: CCCCCCC(C)(C)c1cc(OC)c(-c2cc(C)cc(C)c2)c(OC)c1
- Ki (Cannabinoid receptor 1 [1]): > 20000 nM
- Ki (Cannabinoid receptor 2): 433 nM
- Ratio [2]: > 46

SMILES: CCCCCCC(C)(C)c1cc(O)c2c(c1)OC(C)(C)[C@H]1CC=C(C)C[C@H]21
- Ki (Cannabinoid receptor 1 [1]): 38.8 nM
- Ki (Cannabinoid receptor 2): 28.8 nM
- Ratio [2]: 1.3

SMILES: CCCCCCC(C)(C)c1cc(O)c2c(c1)OC(C)(C)[C@@H]1CC=C(C)C[C@@H]21
- Ki (Cannabinoid receptor 1 [1]): 0.83 nM
- Ki (Cannabinoid receptor 2): 0.49 nM
- Ratio [2]: 1.7

SMILES: CCCCCCC(C)(C)c1ccc2c(c1)OC(C)(C)[C@@H]1CC=C(C)C[C@@H]21
- Ki (Cannabinoid receptor 1 [1]): 250 nM
- Ki (Cannabinoid receptor 2): 20.8 nM
- Ratio [2]: 12

SMILES: CCCCCCC(C)(C)c1ccc(-c2cc(C)cc(C)c2)cc1
- Ki (Cannabinoid receptor 1 [1]): > 30000 nM
- Ki (Cannabinoid receptor 2): 2140 nM
- Ratio [2]: > 14

SMILES: CCCCCCC(C)(C)c1cc(O)c2c(c1)OC(C)(C)[C@@H]1CCC(=O)C[C@@H]21 [NABILONE]
- Ki (Cannabinoid receptor 1 [1]): 2.19 nM
- Ki (Cannabinoid receptor 2): 1.84 nM
- Ratio [2]: 1.2

SMILES: CCCCCCC(C)(C)c1cc(OC)c2c(c1)OC(C)(C)[C@@H]1CC=C(C)C[C@@H]21
- Ki (Cannabinoid receptor 1 [1]): 15800 nM
- Ki (Cannabinoid receptor 2): 20 nM
- Ratio [2]: 793

SMILES: CCCCCCC(C)(C)c1ccc(-c2cc(C)cc(C)c2)c(O)c1
- Ki (Cannabinoid receptor 1 [1]): 12.5 nM
- Ki (Cannabinoid receptor 2): 4.14 nM
- Ratio [2]: 3

SMILES: CCCCCCC(C)(C)c1cc2c(c(OP(=O)(OCC)OCC)c1)[C@@H]1CC(C)=CC[C@H]1C(C)(C)O2
- Ki (Cannabinoid receptor 1 [3]): > 20000 nM
- Ki (Cannabinoid receptor 1 [4]): > 20000 nM
- Ki (Cannabinoid receptor 2): 442 nM
- Ratio [2]: > 45
